Test results as given in US20230382904A1, “SUBSTITUTED 4-([1,2,4]TRIAZOLO[1,5-a]PYRIDIN-6-YL)THIOPHENE-2-CARBOXAMIDE DERIVATIVES AND USE THEREOF” (The Johns Hopkins University, priority 2020, published 2023).

Columns and labels:
DLK = DLK (Homo sapiens (Human), UniProt Q12852); test: DLK biochemical assay (TR-FRET, MKK7 phosphorylation)
Procedure, shortened: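 Catalytic-domain DLK (10 nM) phosphorylates His-MKK7 (15 nM) with 60 μM ATP, 90 min at RT, in pH 7.5 HEPES buffer. Phospho-T275/S277 read by TR-FRET (Eu anti-phospho donor, XL665 anti-His acceptor) after 16 h detection, at 37° C. in 1536 or 4° C. in 384 format.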

LZK = LZK (Homo sapiens (Human), UniProt O43283); test: LZK biochemical assay (TR-FRET, MKK7 phosphorylation)
Procedure, shortened: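 Catalytic-domain LZK (10 nM) phosphorylated His-MKK7 (15 nM) with 15 μM ATP for 90 min at RT. Phospho-T275/S277 detected by Eu-anti-phospho-MKK7/XL665-anti-His TR-FRET after 16 h at 32° C, using the 665/Eu ratio. Buffer: 50 mM Hepes pH 7.5, 10 mM MgCl2, 1 mM DTT.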

DLK, sequence (Q12852 1-520): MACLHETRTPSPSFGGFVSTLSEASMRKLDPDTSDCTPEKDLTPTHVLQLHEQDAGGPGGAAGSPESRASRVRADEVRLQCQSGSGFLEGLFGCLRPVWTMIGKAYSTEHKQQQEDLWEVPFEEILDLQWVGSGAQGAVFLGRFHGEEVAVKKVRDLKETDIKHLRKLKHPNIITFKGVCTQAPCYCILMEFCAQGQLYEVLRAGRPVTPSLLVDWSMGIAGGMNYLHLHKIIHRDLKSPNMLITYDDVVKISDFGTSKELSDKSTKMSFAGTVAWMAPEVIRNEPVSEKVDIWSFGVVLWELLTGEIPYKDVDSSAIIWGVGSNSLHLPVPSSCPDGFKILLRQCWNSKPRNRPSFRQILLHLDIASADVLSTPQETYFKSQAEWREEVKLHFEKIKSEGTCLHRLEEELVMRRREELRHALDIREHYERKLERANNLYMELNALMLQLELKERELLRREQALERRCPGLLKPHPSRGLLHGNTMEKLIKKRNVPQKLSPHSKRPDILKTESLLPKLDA
LZK, sequence (O43283 168-409): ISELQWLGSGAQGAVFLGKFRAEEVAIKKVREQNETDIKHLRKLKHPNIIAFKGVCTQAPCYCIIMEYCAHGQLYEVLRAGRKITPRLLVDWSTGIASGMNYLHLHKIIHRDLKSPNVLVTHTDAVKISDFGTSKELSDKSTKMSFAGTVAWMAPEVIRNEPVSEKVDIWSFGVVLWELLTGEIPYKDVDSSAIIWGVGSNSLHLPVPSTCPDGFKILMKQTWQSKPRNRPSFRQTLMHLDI

| Compound | IC50 (DLK) [nM] | IC50 (LZK) [nM] |
| --- | --- | --- |
| Cn1cccc1CNC(=O)c1cc(-c2ccc3nc(N)nn3c2)cs1 [Compound 276] | 420 | 15000 |
| C[C@H](NC(=O)c1cc(-c2cc(C(=O)NC3CNC3)c3nc(N)nn3c2)cs1)c1ccc(F)cc1 [Compound 114] | 47 | 710 |
| Nc1nc2ccc(-c3csc(C(=O)NCc4c(F)cccc4F)c3)cn2n1 [Compound 221] | 1240 | 9200 |
| CCNC(=O)c1cc(-c2csc(C(=O)NCc3ccccc3)c2)cn2nc(N)nc12 [Compound 5] | 160 | 1200 |
| COC[C@H](NC(=O)c1cc(-c2cc(C(=O)NC(C)C)c3nc(N)nn3c2)cs1)c1ccccc1 (stereo in doubt) [Compound 91] | 3.3 | 48 |
| Nc1nc2ccc(-c3csc(C(=O)NCC4CCCOC4)c3)cn2n1 (stereo not shown) [Compound 197] | 1600 | > 30000 |
| COCCOc1cccc(CNC(=O)c2cc(-c3ccc4nc(N)nn4c3)cs2)c1 [Compound 292] | 1200 | 19000 |
| Nc1nc2ccc(-c3csc(C(=O)NCc4ccc(CN5CCCC5)cc4)c3)cn2n1 [Compound 344] | 470 | 21000 |
| Nc1nc2ccc(-c3csc(C(=O)NC(c4ccccc4)C4CC4)c3)cn2n1 (stereo not shown) [Compound 346] | 79 | 29000 |
| Nc1nc2cc(F)c(-c3csc(C(=O)NCc4ccc(F)cc4)c3)cn2n1 [Compound 300] | 1100 | 3700 |
| Nc1nc2ccc(-c3csc(C(=O)NC(c4ccccc4)C4CC4)c3)cn2n1 (stereo not shown) [Compound 347] | 130 | > 30000 |
| COCc1cc(-c2csc(C(=O)N[C@@H](C)c3ccc(F)cc3)c2)cn2nc(N)nc12 [Compound 388] | 210 | 1200 |
| C[C@H](NC(=O)c1cc(-c2cc(C(=O)NC3CC3)c3nc(N)nn3c2)cs1)c1ccccc1 [Compound 44] | 47 | 1400 |
| CC(NC(=O)c1cc(-c2ccc3nc(N)nn3c2)cs1)c1nccn1C (stereo not shown) [Compound 350] | 760 | 20500 |
| COCCCNC(=O)c1cc(-c2ccc3nc(N)nn3c2)cs1 [Compound 271] | 3500 | > 30000 |
| Nc1nc2ccc(-c3csc(C(=O)NCc4ccc5c(c4)OCO5)c3)cn2n1 [Compound 295] | 390 | 14000 |
| COc1cncc(CNC(=O)c2cc(-c3ccc4nc(N)nn4c3)cs2)c1 [Compound 235] | 370 | 23000 |
| CC[C@H](C)NC(=O)c1cc(-c2csc(C(=O)N[C@@H](C)c3ccc(F)cc3)c2)cn2nc(N)nc12 [Compound 94, 2-Amino-N-[(2S)-butan-2-yl]-6-(5-{[(1S)-1-(4-fluorophenyl)ethyl]carbamoyl}thiophen-3-yl)[1,2,4]triazolo[1,5-a]pyridine-8-carboxamide] | 4.75 | 34 |
| Nc1nc2c(C(=O)NC3CC3)cc(-c3csc(C(=O)NCc4ccc(F)cc4)c3)cn2n1 [Compound 46] | 360 | 1200 |
| CC(C)c1nnc(-c2cc(-c3csc(C(=O)N[C@@H](C)c4ccc(F)cc4)c3)cn3nc(N)nc23)s1 [Compound 392] | 100 | 830 |
| Nc1nc2ccc(-c3csc(C(=O)NCc4ccc(OCCN5CCCCC5)cc4)c3)cn2n1 [Compound 279] | 2100 | > 30000 |

| Compound | IC50 (DLK) [nM] | IC50 (LZK) [nM] |
| --- | --- | --- |
| COc1cccc(CNC(=O)c2cc(-c3cc(C(=O)N[C@@H](C)CO)c4nc(N)nn4c3)cs2)c1 [Compound 31] | 13 | 170 |
| N#Cc1cccc(CNC(=O)c2cc(-c3ccc4nc(N)nn4c3)cs2)c1 [Compound 236] | 315 | > 30000 |
| Cn1cnc(CNC(=O)c2cc(-c3ccc4nc(N)nn4c3)cs2)c1 [Compound 251] | 1960 | 9100 |
| Nc1nc2ccc(-c3csc(C(=O)NC4CCCOC4)c3)cn2n1 (stereo not shown) [Compound 184] | 1950 | 24000 |
| CCc1ccccc1NC(=O)c1cc(-c2ccc3nc(N)nn3c2)cs1 [Compound 278] | 440 | > 30000 |
| CCc1nnc(-c2cc(-c3csc(C(=O)N[C@@H](C)c4ccc(F)cc4)c3)cn3nc(N)nc23)s1 [Compound 397] | 73 | 1100 |
| Cn1nccc1CNC(=O)c1cc(-c2ccc3nc(N)nn3c2)cs1 [Compound 255] | 1990 | 4400 |
| Nc1nc2ccc(-c3csc(C(=O)NC4CCOc5ccc(F)cc54)c3)cn2n1 (stereo not shown) [Compound 315] | 130 | 4800 |
| CC(C)NC(=O)c1cc(-c2csc(C(=O)N[C@H](C)c3ccccc3)c2)cn2nc(N)nc12 [Compound 97] | 16 | 140 |
| C[C@H](NC(=O)c1cc(-c2cc(C(=O)N[C@@H](C)CO)c3nc(N)nn3c2)cs1)c1nc2ccccc2o1 [Compound 100] | 5.8 | 200 |
| C[C@H](NC(=O)c1cc(-c2ccn3nc(N)nc3c2)cs1)c1ccc(F)cc1 [Compound 369] | 230 | 1900 |
| Nc1nc2ccc(-c3csc(C(=O)NCC4COCCO4)c3)cn2n1 (stereo not shown) [Compound 209] | 2500 | > 30000 |
| Nc1nc2ccc(-c3csc(C(=O)NCc4cccc(Cl)c4)c3)cn2n1 [Compound 193] | 615 | 5000 |
| CC[C@H](NC(=O)c1cc(-c2ccc3nc(N)nn3c2)cs1)c1ccccc1 [Compound 324] | 62 | 1600 |
| Nc1nc2c(C(F)(F)F)cc(-c3csc(C(=O)NCc4ccc(F)cc4)c3)cn2n1 [Compound 375] | 840 | 3300 |
| CC(NC(=O)c1cc(-c2csc(C(=O)NCc3ccc(F)cc3)c2)cn2nc(N)nc12)C(F)(F)F (stereo not shown) [Compound 27] | 58 | 99 |
| Cc1cccc(CNC(=O)c2cc(-c3ccc4nc(N)nn4c3)cs2)c1C [Compound 223] | 640 | 23000 |
| Nc1nc2c(C(=O)NC3CCC3)cc(-c3csc(C(=O)NCc4ccc(F)cc4)c3)cn2n1 [Compound 58] | 29.5 | 330 |
| COc1cccc(CNC(=O)c2cc(-c3ccn4nc(N)nc4c3)cs2)c1 [Compound 364] | 400 | 19000 |
| C[C@H](NC(=O)c1cc(-c2cc(C(=O)NC3COC3)c3nc(N)nn3c2)cs1)c1ccccc1 [Compound 65] | 100 | 19000 |
| COc1cccc([C@@H](C)NC(=O)c2cc(-c3ccc4nc(N)nn4c3)cs2)c1 [Compound 264] | 505 | > 30000 |

| Compound | IC50 (DLK) [nM] | IC50 (LZK) [nM] |
| --- | --- | --- |
| C[C@@H](NC(=O)c1cc(-c2ccc3nc(N)nn3c2)cs1)c1cccc(Cl)c1 [Compound 267] | 260 | > 30000 |
| Nc1nc2ccc(-c3csc(C(=O)NCc4nc(C(F)(F)F)cs4)c3)cn2n1 [Compound 245] | 1300 | > 30000 |
| CC[C@H](C)NC(=O)c1cc(-c2csc(C(=O)N[C@@H](COC)c3ccc(F)cc3)c2)cn2nc(N)nc12 [Compound 138] | 4.2 | 31 |
| Nc1nc2ccc(-c3csc(C(=O)NCC4CCOCC4)c3)cn2n1 [Compound 188] | 2000 | > 30000 |
| CC(C)NC(=O)c1cc(-c2csc(C(=O)N[C@@H](C)c3nc4ccccc4o3)c2)cn2nc(N)nc12 [Compound 95] | 14 | 130 |
| Nc1nc2cc(-c3csc(C(=O)NCc4ccc(F)cc4)c3)ccn2n1 [Compound 363] | 640 | 8700 |
| Nc1nc2ccc(-c3csc(C(=O)NCCc4c(F)cccc4Cl)c3)cn2n1 [Compound 283] | 530 | > 30000 |
| C[C@H](NC(=O)c1cc(-c2ccc3nc(N)nn3c2)cs1)c1ccc(F)cc1 [Compound 302] | 75.5 | 1130 |
| CCNC(=O)c1cc(-c2csc(C(=O)N[C@@H](C)c3ccc(F)cc3)c2)cc2nc(N)nn12 [Compound 158] | 33 | 560 |
| CC[C@@H](NC(=O)c1cc(-c2csc(C(=O)N[C@@H](C)c3ccc(F)cc3)c2)cn2nc(N)nc12)C(F)(F)F [Compound 127] | 930 | 8300 |
| CC[C@H](C)NC(=O)c1cc(-c2csc(C(=O)NCc3ccc(F)cc3)c2)cn2nc(N)nc12 [Compound 93] | 11 | 41 |
| Cc1c(-c2ccc3nc(N)nn3c2)csc1C(=O)N[C@@H](C)c1ccc(F)cc1 [Compound 351] | 6400 | 20000 |
| NC(=O)c1cc(-c2csc(C(=O)NCc3ccc(F)cc3)c2)cn2nc(N)nc12 [Compound 42] | 70 | 480 |
| Cc1sc(C(=O)NCc2ccccc2)cc1-c1ccc2nc(N)nn2c1 [Compound 320] | > 30000 | > 30000 |
| CC(C)NC(=O)c1cc(-c2csc(C(=O)NC3COC3)c2)cn2nc(N)nc12 [Compound 129] | 290 | 800 |
| COCCNC(=O)c1cc(-c2csc(C(=O)NCc3ccc(F)cc3)c2)cn2nc(N)nc12 [Compound 24] | 69 | 630 |
| CN(C)C(=O)c1cc(-c2csc(C(=O)NCc3ccc(F)cc3)c2)cn2nc(N)nc12 [Compound 1] | 20000 | > 30000 |
| CC[C@@H](NC(=O)c1cc(-c2cc(C(=O)NC(C)C)c3nc(N)nn3c2)cs1)c1ccc(F)cc1 [Compound 134] | 36 | 680 |
| CC[C@H](NC(=O)c1cc(-c2cc(C(=O)NC(C)CF)c3nc(N)nn3c2)cs1)c1ccc(F)cc1 (single isomer, unassigned) [Compound 144-2] | 23 | 200 |
| CN1CCCCC1CNC(=O)c1cc(-c2ccc3nc(N)nn3c2)cs1 (stereo not shown) [Compound 230] | 2500 | 28000 |
